Values of other authors, collected in patent publication EP0114993B1, “Renin inhibitory tripeptides” (Merck & Co., Inc., priority 1982, dated 1990).

System: hog renin
Details: after the injection of hog renin into nephrectomized rats; Gross et al., Science 175:656, 1971

pepstatin
blood pressure in vivo: reduce blood pressure
